Measured values from ChEMBL document CHEMBL6078667, “Synthesis, Biological Evaluation, and Mechanistic Insights of Rubrolide Analogues as Antitumor Agents” (J Nat Prod, 2024).
Active and inactive are the calls of the source. The calls are words filed in the database; no cut-off is given here.

Columns and labels:
HeLa [1] = test: Cell cycle arrest in human HeLa cells assessed as accumulation of cells at G0/G1 phase at 0.4 uM measured after 24 hrs by PI staining based flow cytometric analysis (reference value: 54.7 %); type: functional
HCT-116 [2] = test: Cell cycle arrest in human HCT-116 cells assessed as accumulation of cells at G2/M phase at 0.2 uM measured after 24 hrs by PI staining based flow cytometric analysis (reference value: 26.4 %); type: functional
[3] = Drug localization in human HCT-116 cell mitochondria incubated for 8 hrs by Mito-tracker green dye based fluorescence microscopic analysis; type: ADME; conditions: hct-116, 8 h
HeLa [4] = test: Antitumor activity against human HeLa cells xenografted in female BALB/c nude mouse assessed as reduction in tumor cell growth administered intraperitoneally as liposome formulation once daily for 13 days; type: functional; conditions: dose 5-20 mg/kg, route ip, time 13.0 day
HCT-116 [5] = test: Induction of apoptosis in human HCT-116 cells assessed as viable cells at 0.4 uM incubated for 24 hrs by Annexin V-FITC/PI staining based analysis (reference value: 92.4 %); type: functional; conditions: read-out: Activity
HeLa [6] = test: Cytotoxicity against human HeLa cells assessed as inhibition of cell growth incubated for 72 hrs by MTT assay; type: functional, cell-based
HCT-116 [7] = test: Induction of apoptosis in human HCT-116 cells assessed as late apoptotic cells at 0.4 uM incubated for 24 hrs by Annexin V-FITC/PI staining based analysis (reference value: 0.095 %); type: functional
HCT-116 [8] = test: Cell cycle arrest in human HCT-116 cells assessed as accumulation of cells at G0/G1 phase at 0.2 uM measured after 24 hrs by PI staining based flow cytometric analysis (reference value: 51.3 %); type: functional
U-87 MG [9] = test: Cytotoxicity against human U-87 MG cells assessed as inhibition of cell growth incubated for 72 hrs by MTT assay; type: functional, cell-based, U-87MG ATCC
[10] = Drug localization in human HeLa cell endoplasmic reticulum incubated for 8 hrs by […] dye based fluorescence microscopic analysis; type: ADME, subcellular
HCT-116 [11] = test: Upregulation of CHOP expression in human HCT-116 cells at 0.2 to 0.4 uM measured after 48 hrs by Western blot analysis; type: functional, cell-based; conditions: dose 0.2-0.4 µM
HCT-116 [12] = test: Cell cycle arrest in human HCT-116 cells assessed as accumulation of cells at G2/M phase at 0.4 uM measured after 24 hrs by PI staining based flow cytometric analysis (reference value: 26.4 %); type: functional
HCT-116 [13] = test: Cell cycle arrest in human HCT-116 cells assessed as increase in cyclin B1 expression at 0.2 to 0.4 uM incubated for 24 hrs by Western blot analysis; type: functional, cell-based; conditions: dose 0.2-0.4 µM
[14] = Drug localization in human HCT-116 cell endoplasmic reticulum incubated for 8 hrs by […] dye based fluorescence microscopic analysis; type: ADME, subcellular; conditions: hct-116, 8 h
HCT-116 [15] = test: Upregulation of phosphorylated eIF2alpha expression in human HCT-116 cells at 0.2 to 0.4 uM measured after 48 hrs by Western blot analysis; type: functional, cell-based; conditions: dose 0.2-0.4 µM
HeLa [16] = test: Induction of apoptosis in human HeLa cells assessed as necrotic cells at 0.2 uM incubated for 24 hrs by Annexin V-FITC/PI staining based flow cytometric analysis (reference value: 0.44 %); type: functional
HeLa [17] = test: Induction of apoptosis in human HeLa cells assessed as early apoptotic cells at 0.2 uM incubated for 24 hrs by Annexin V-FITC/PI staining based flow cytometric analysis (reference value: 2.35 %); type: functional
MKN-45 = test: Cytotoxicity against human MKN-45 cells assessed as inhibition of cell growth at 10 uM measured after 72 hrs by MTT assay relative to control; type: functional
HCT-116 [18] = test: Induction of apoptosis in human HCT-116 cells assessed as viable cells at 0.2 uM incubated for 24 hrs by Annexin V-FITC/PI staining based analysis (reference value: 92.4 %); type: functional; conditions: read-out: Activity
HCT-116 [19] = test: Cytotoxicity against human HCT-116 cells assessed as survival rate at 10 uM measured after 72 hrs by MTT assay relative to control; type: functional; conditions: read-out: Survival
HCT-116 [20] = test: Induction of apoptosis in human HCT-116 cells assessed as early apoptotic cells at 0.2 uM incubated for 24 hrs by Annexin V-FITC/PI staining based analysis (reference value: 7.40 %); type: functional
HeLa [21] = test: Antitumor activity against human HeLa cells xenografted in female BALB/c nude mouse assessed as reduction in tumor cell volume at 20 mg/kg, ip administered as liposome formulation once daily for 13 days relative to control; type: functional; set-up: scale not given: the % may be the effect or the level left; conditions: time 13 day
U-87 MG [22] = test: Cytotoxicity against human U-87 MG cells assessed as survival rate at 10 uM measured after 72 hrs by MTT assay relative to control; type: functional, U-87MG ATCC; conditions: read-out: Survival
[23] = Selectivity index, ratio of IC50 for HHL-5 cells to IC50 for human HeLa cells; type: toxicity; conditions: HHL-5 cells and HeLa cells, pooled result: one value given for 6 cell lines, strains, targets or settings, read-out: Ratio IC50
HCT-116 [24] = test: Induction of apoptosis in human HCT-116 cells assessed as early apoptotic cells at 0.4 uM incubated for 24 hrs by Annexin V-FITC/PI staining based analysis (reference value: 7.40 %); type: functional
HCT-116 [25] = test: Cytotoxicity against human HCT-116 cells assessed as inhibition of cell growth at 10 uM measured after 72 hrs by MTT assay relative to control; type: functional

Question: Which results are given for `COc1ccc(C2=CC(=O)O/C2=C\c2ccc(O)cc2)cc1`?
Answer: Activity (HeLa [1]): 8.71%; Activity (HCT-116 [2]): 22.8%; Drug uptake [3]: Not_active; Activity (HeLa [4]): Dose-dependent-effect; viability at 0.4 µM (HCT-116 [5]): 69.6%; IC50 (HeLa [6]): 200 nM; Activity (HCT-116 [7]): 14.7%; Activity (HCT-116 [8]): 38.8%; IC50 (U-87 MG [9]): 2400 nM; Drug uptake [10]: Active; Activity (HCT-116 [11]): Active; Compound Impacts Endoplasmic Reticulum Stress Related Perk-Eif2Alpha-Chop Signalling Pathway; Activity (HCT-116 [12]): 31.6%; Activity (HCT-116 [13]): Active; Drug uptake [14]: Active; Activity (HCT-116 [15]): Active; Compound Impacts Endoplasmic Reticulum Stress Related Perk-Eif2Alpha-Chop Signalling Pathway; Activity (HeLa [16]): 0.44%; Activity (HeLa [17]): 4.86%; inhibition at 10 µM (MKN-45): > 50%; viability at 0.2 µM (HCT-116 [18]): 82.7%; viability at 10 µM (HCT-116 [19]): 19.7%; Activity (HCT-116 [20]): 3.69%; Activity (HeLa [21]): >60%; viability at 10 µM (U-87 MG [22]): 12.4%; selectivity ratio [23]: 2.6; Activity (HCT-116 [24]): 8.33%; inhibition at 10 µM (HCT-116 [25]): > 50%
